Experimental data from patent US20070218504A1, “HUMAN LEPTIN-DERIVED POLYPEPTIDES AND USES THEREOF” (UNIVERSITY OF PITTSBURGH, priority 2006, published 2007).

Legend:
CRP = test: Leptin's effect on CRP secretion and expression in human hepatocytes (Western, real-time RT-PCR); type: cell-based
Description: (§1) Human hepatocytes were isolated from donor livers. Briefly, the livers were perfused in a three-step process. A calcium-free buffer supplemented with EGTA is used to break […] junctions, which is followed by the same perfusion buffer without EGTA. Finally, a calcium-containing buffer supplemented with digestive enzymes (collagenase and DNase) was used. Following digestion, parenchymal hepatocytes were isolated by three steps of low-speed centrifugation. Cells with a viability of at least 85% were plated and cultured in hepatocytes maintenance medium (HMM) (Cambrex BioScience, Walkersville, Md.) supplemented with 10% fetal bovine serum (FBS), 0.1 μM dexamethasone, 0.1 μM insulin, and 50 μg/ml gentamicin on collagen-coated tissue culture dishes for 2-4 hours. The cells were subsequently cultured in the above medium without FBS.
(§2) Approximately 24 hours after seeded, the hepatocytes were washed with serum-free HMM supplemented with 0.1 μM dexamethasone and 0.1 μM insulin, and then cultured in the same medium for another 48 hours. Subsequently, the cells were switched to serum-free HMM supplemented with 0.1 μM dexamethasone before stimulated with leptin (NHPP) or rhIL-6 (R&D Systems, Minneapolis, Minn.) for 24 hours or 48 hours. For experiments involving PI3-kinase inhibitors, hepatocytes were pretreated with LY294002 (EMD Biosciences, Calif.) for 1 hour before hormonal stimulation.
Hepatocytes were isolated and treated as described in Example 4. Culture medium was centrifuged to remove detached cells and then heated at 95° C. for 5 minutes in SDS-sample buffer (Boston Bioproducts, Mass.). After separation on 10% SDS polyacrylamide gels, proteins were electro-transferred overnight to nitrocellulose membranes. Pre-blocked using 5% non-fat milk in PBS with 0.5% Tween 20, the membranes were incubated with appropriate primary antibody for 2 hours at room temperature, washed and incubated for 1 hour with a corresponding […] at room temperature. […]
CRP mRNA expression was measured by quantitative real-time RT-PCR. […]

recombinant human leptin = biological target: T1, recombinant human leptin (Homo sapiens, UniProt P41159); test: Immuno-precipitation assay of direct binding of human CRP and human leptin; details: leptin/CRP mixture and human serum; Western blot with anti-CRP
T1 construct: purchased AF Parlow of NHPP, Torrance, CA
T1 sequence (P41159 22-167): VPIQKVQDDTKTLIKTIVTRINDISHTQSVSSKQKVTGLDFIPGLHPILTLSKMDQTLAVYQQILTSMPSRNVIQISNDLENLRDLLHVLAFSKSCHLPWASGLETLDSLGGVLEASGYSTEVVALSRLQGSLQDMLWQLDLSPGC
Description: To explore a physical interaction between CRP and leptin, the direct binding of these proteins was determined by an immuno-precipitation assay. Rat CRP was purified from fresh rat serum to >95% purity employing a previously established affinity-purification protocol (20). […] The purified human- and rat-CRP proteins were pre-mixed with recombinant human and mouse leptin, respectively, before addition of antibodies specific for human- and mouse-leptin. The concentrations of CRP and leptin in the precipitation reaction were all within the physiological ranges that have been observed in humans or rats (11 & 15). In parallel experiments, recombinant leptin also was pre-mixed with human- or rat-serum to allow for direct interaction prior to immuno-precipitation. The protein precipitates obtained were subjected to Western blot assays using specific anti-CRP antibodies.

[1] = system: IL-6 induced activation of STAT3; test: IL-6 induced activation of STAT3 in human primary hepatocytes; type: cell-based; details: even higher CRP concentration
Description: as §1, §2

ob/ob mice [2] = test: Co-infusion of polypeptide E with human CRP and leptin through mini-osmotic pumps into ob/ob mice; type: in vivo, mouse
Description: FIG. 11. […] Infusion dosages for human CRP and leptin were 48 μg/day/mouse and 12 μg/day/mouse, respectively. The infusion rate for Pep-E (P) was 24 μg/day/mouse (medium dosage, “m”) and 48 μg/day/mouse (high dosage, “h”). Food-intake (A and C) and body weight (B and D) were monitored daily throughout the infusion. The arrows in A-D indicate the day of surgery. At the end of infusion, blood samples were collected for the measurement of blood-glucose, human CRP, and human leptin. The serum concentrations of human CRP and human leptin were 0.85±0.1 μg/ml and 18 ng±2 ng/ml, respectively. […] Also shown is glucose concentration from mice infused with human CRP and leptin but not with Pep-E.
In the in vivo experiment, polypeptide E was co-infused through mini-osmotic pumps with human CRP and leptin into the ob/ob mice. Food intake in the period of 24 hours and body weight were followed during the infusion period (FIGS. 11A-11D).

ob/ob mice [3] = test: Intracerebralventricular (i.c.v.) injection of human CRP and leptin in ob/ob mice, food intake and body weight; type: in vivo, mouse; details: ob/ob mice

Row | co-precipitation of CRP with anti-human leptin antibody (recombinant human leptin) | Substance | effect on CRP gene expression, short treatment (CRP; 6-8 hours) | effect on secreted CRP in the culture medium (CRP; human hepatocytes, physiological leptin concentrations, 24 hours) | effect on human CRP mRNA expression (CRP; real-time PCR) | effect on IL-6 induced activation of STAT3 [1] | serum concentration of human CRP (ob/ob mice [2]; end of infusion, 48 μg/day/mouse) | effect of human CRP on satiety and weight-reducing effects of human leptin in the absence of the polypeptide (ob/ob mice [2]; human CRP 48 μg/day/mouse, leptin 12 μg/day/mouse) | effect of i.c.v. human CRP on satiety and weight-reducing effects induced by mouse leptin (ob/ob mice [3])
1 | – | human leptin: human recombinant leptin | did not influence CRP gene expression | dose-dependent positive effect | dosage-dependent effect | – | – | – | –
2 | could pull down human CRP | human CRP: human C-reactive protein, purified preparation from a commercial source | – | – | – | did not suppress | 850 ± 100 ng/mL | able to block the satiety and weight-reducing effects | did not influence
